Measured values as given in US10942183B2, “Methods of detecting progesterone receptor and of detecting an expression level” (REGENTS OF THE UNIVERSITY OF MINNESOTA, priority 2017, dated 2021).

How the values were obtained:
[1] = test system: PR target gene expression; assay: Global gene expression analysis (Illumina HT-12v4) in T47D cells expressing WT or K388R PR-B; format: cell-based, human; conditions: for regulation of PR target genes in cells expressing KR PR: T47D KR PR
Method: For genome-wide microarray expression analysis, T47D cells expressing pIRES-neo3 empty vector, WT PR, or K388R PR were serum starved in modified improved minimum essential media (IMEM) (Gibco, ThermoFisher Scientific, Waltham, Mass.) for one day before treatment. Eight groups were treated with vehicle control, progesterone (10^−8 M), mifepristone (10^−7 M), aglepristone (10^−7 M), onapristone (10^−7 M), or combined treatment of progesterone+mifepristone, progesterone+aglepristone, or progesterone+onapristone for six hours before RNA extraction using a RNeasy kit (QIAgen). DNase I treated (QIAgen) RNA samples from triplicate experiments were prepared for expression analysis using the Illumina HT-12v4 bead chip platform according to standard protocols. Raw data from agonist-treated cells (progesterone or R5020) collected from two identically performed independent experiments (from this study and a previous study: GSE34148 (Knutson et al. Breast Cancer Res 2012, 14:R95)) was combined, normalized, and batch-corrected to ensure that gene expression values were informative across samples from separate experiments. Data were analyzed within multiple common R (R Core Team: R: A language and environment for statistical computing. R Foundation for Statistical Computing, Vienna, Austria 2015, [available on the world wide web at r-project.org/]) and Bioconductor (Gentleman et al. Genome Biol 2004, 5:R80) packages. Raw intensities were log 2 transformed and quantile normalized using lumi (Du et al. Bioinformatics 2008, 24:1547-1548), batch corrected using sva (Leek et al.: sva: Surrogate Variable Analysis. R package version 3.18.0.), and multiple probes for a single gene were collapsed using genefilter (Gentleman et al.: genefilter: genefilter: methods for filtering genes from high-throughput experiments. R package version 1.52.1). Differentially expressed genes (pairwise comparisons between all eight groups) were analyzed in limma (Smyth: Limma: linear models for microarray data. In: Bioinformatics and computational biology solutions using R and Bioconductor. edn.: Springer; 2005: 397-420), where empirical Bayes was used to better estimate the variance of the genes. Biological comparisons (for example, R5020/vehicle) were presented as log 2 fold change including the Benjamini and Hochberg (BH) adjusted P value (Benjamini et al. J Roy Stat Soc B Met 1995, 57:289-300) to account for multiple hypothesis testing. Expression data is available in the GEO database, accession: GSE94363.
Normalized gene expression data were filtered to isolate only high variance genes using the bioconductor package genefilter (Gentleman et al.: genefilter: genefilter: methods for filtering genes from high-throughput experiments. In., R package version 1.50.0 edn: R package version 1.50.0) using interquartile range cutoff value of 0.85. Non-negative matrix factorization (NMF) was performed within R using the NMF package version 0.20.5 (Gaujoux et al. BMC bioinformatics 2010, 11:367) where matrix factors were rank (2-10) and algorithm (brunet or snmf/r) optimized using the nmf function with parameters nrun=30 and seed=123456. […] Clustering and plots were performed in R (NMF package, a heat map function) using Euclidean distance and UPGMA (average) linkage.
PR ligand-mediated promoter selectivity remains understudied, especially in the context of antiprogestins and posttranslationally modified PR species. […]

[2] = test system: PR Ser294 phosphorylation; assay: PR Ser294 phosphorylation in T47D cells (Western blotting, immunofluorescence); format: cell-based, human; conditions: T47D cells expressing WT or KR PR; for PR Ser294 phosphorylation, ligand alone: 1 hour; for PR Ser294 phosphorylation in the presence of progesterone (co-treatment): progesterone plus antiprogestin
Method: T47D human breast cancer cell lines engineered to stably express PR variants (null, WT, K388R, or S294A) were previously described (Knutson et al. Breast Cancer Res 2012, 14:R9). T47D cells were maintained in complete minimal essential medium (cMEM) supplemented with 5% fetal bovine serum (FBS), 1% non-essential amino acids (NEAA), 1% penicillin/streptomycin, 6 ng/ml insulin (CellGro, Manassas, Va., USA, catalog #10-010-CV). T47D cells described above were engineered to also stably express RUNX2 shRNAs via the pLKO.1 knockdown expression vector system, which required 25 μg/ml puromycin for the vector. In various experiments, cells or explants were treated with E2, ICI 182 780, R5020, mifepristone, aglepristone, or onapristone (Arno Therapeutics, Inc., Flemington, N.J.).
Immunocytochemistry was performed on T47D cells expressing PR variants to measure total- and phospho-Ser294 PR levels. 500,000 cells were grown on coverslips in 6-well plates, starved in IMEM plus 5% charcoal stripped FBS, treated, and fixed with 4% paraformaldehyde for 20 min. The cells were permeabilized with 0.3% Triton-X100 before incubating with total-PR (clone Ab8, ThermoFisher Scientific, Waltham, Mass.) or custom phospho-Ser294-PR (clone 8508) antibodies. Cells were incubated with fluorescent secondary antibodies (Alexa Fluor 488) and DAPI mounting medium (Life Technologies, ThermoFisher Scientific, Waltham, Mass.) before visualizing on a Zeiss microscope with A4 and L5 filter cubes. Immunoblotting was performed as previously described (Daniel et al. Mol Endocrinol 2007, 21:2890-2906).
In addition, extensive luminal breast cancer heterogeneity may limit the ability to observe a subset of PR-driven breast cancers without patient selection. In this case, PR target gene expression may provide an accurate means of predicting which breast tumors are likely to be influenced by PR-driven biological pathways enacted by active phospho-Ser294 PRs. To probe changes in PR target gene expression in the presence or absence of commonly used PR ligands (R5020, RU486), including diverse antiprogestins (aglepristone, onapristone) currently in development for clinical use, the well characterized model system of T47D breast cancer cells, stably expressing either unmodified wild-type (WT) PR-B or a transcriptionally hyperactive form of deSUMOylated K388R PR-B (KR; this receptor faithfully mimics phosphorylated PR-B with regard to target gene selection) were used (Knutson et al. Pharmacology & therapeutics 2014, 142:114-125; Daniel et al. Mol Endocrinol 2007, 21:2890-2906). Whether the antiprogestins mifepristone (also called RU486), aglepristone, or onapristone alter PR Ser294 phosphorylation were tested in these T47D breast cancer models. Cells were treated for 1 hour with vehicle, progesterone, mifepristone, aglepristone, or onapristone and whole cell lysates were processed for Western blotting or immunofluorescence (IF) analysis (FIG. 4A, B). […] Greater loss of total KR PR protein was also apparent in the presence of progesterone and selected antiprogestins relative to liganded WT PR, consistent with increased turnover of deSUMOylated active receptors relative to intact WT PRs.

Row | SMILES | regulation of PR target genes in cells expressing KR PR ([1]; antiprogestin 10^-7 M, 6 hours) | PR Ser294 phosphorylation, ligand alone [2] | PR Ser294 phosphorylation in the presence of progesterone (co-treatment) [2] | regulation of PR target genes in cells expressing WT PR ([1]; T47D WT PR, antiprogestin 10^-7 M, 6 hours) | PR transcriptional activity (hierarchical clustering of regulated genes) ([1]; T47D WT or KR PR, compared with PR-null cells)
1 | CC#C[C@]1(O)CC[C@H]2[C@@H]3CCC4=CC(=O)CCC4=C3[C@@H](c3ccc(N(C)C)cc3)C[C@@]21C [mifepristone] | substantially regulate multiple genes in cells expressing KR PR | stimulated robust PR Ser294 phosphorylation | also induced Ser294 phosphorylation | – | –
2 | CN(C)c1ccc([C@H]2C[C@]3(C)[C@@H](CC[C@]3(O)CCCO)[C@@H]3CCC4=CC(=O)CCC4=C32)cc1 [onapristone] | does not substantially regulate PR target genes in either cell line | had no effect on PR Ser294 phosphorylation | blocked Ser294 phosphorylation in the presence of progesterone | does not substantially regulate PR target genes in either cell line | effectively inhibited PR (either WT or KR) transcriptional activity comparable to the level found in PR-null (control) cells
3 | CC(=O)[C@H]1CC[C@H]2[C@@H]3CCC4=CC(=O)CC[C@]4(C)[C@H]3CC[C@]12C [progesterone] | – | stimulated PR Ser294 phosphorylation | – | – | –
